{"source": "patent US20250367170A1", "about": "“TOPICAL ANGIOTENSIN II RECEPTOR BLOCKERS (ARBS) FOR TREATING EYE CONDITIONS” (The Cleveland Clinic Foundation, priority 2022, published 2025)", "format_in_all_cases": "in vivo, New Zealand White rabbits", "key": {"[1]": {"test_system": "rabbit corneas after 1N NaOH alkali burn injury", "assay": "Slit lamp stromal opacity area and intensity (ImageJ) one month after alkali burn", "details": "topical 0.2 mg/ml losartan and/or 1% prednisolone acetate six times per day", "description": "(§1) All animal treatments and care were approved by the Institutional Animal Care and Use Committee (IACUC) at the Cleveland Clinic Foundation (Cleveland, OH, USA) and the Animal Care and Use Review Office of the Department of the Army (Fort Detrick, MD). All rabbits were treated in accordance with the tenets of the ARVO Statement for the Use of Animals in Ophthalmic and Vision Research. Sixteen 10- to 15-week-old female New Zealand White rabbits weighing 2.5 to 3.0 kg each were included in this example.\nAlkali injuries were produced in one eye of rabbits with previously published methods^10 using 1N sodium hydroxide (Sigma, St. Louis, MO) in balanced salt solution (BSS, 0.64% sodium chloride, 0.075% potassium chloride, 0.048% calcium chloride dihydrate, 0.03% magnesium chloride hexahydrate, 0.39% sodium acetate trihydrate, 0.17% sodium citrate dihydrate, pH 7.5, Alcon, Ft. Worth, TX) and a 5 mm diameter circular Whatman No. 1 filter paper (Cat #1001-6508, Fisher Scientific) wetted with 100 μl of 1N NaOH solution. Following the alkali burn injury, the cornea was irrigated profusely with BSS. Each injured cornea also received one drop of ciprofloxacin (Alcon, Ft. Worth, TX, USA) ten minutes after surgery and four times a day for one week and at least 15 minutes apart from the study medications.\nWorth TX), at least 5 minutes apart, or 4) 50 μl of BSS.\nAt one month after sodium hydroxide exposure and treatments, with the rabbits under ketamine-xylazine general anesthesia, the eyes were dilated with two drops of 1% tropicamide (Akom Co., Lake Forest, IL) for thirty minutes. The study eye in each rabbit had slit lamp photographs with standardized illumination level and angle of illumination at 20× magnification with a Topcon (Oakland, NJ, USA) SL-D7 slit lamp photography system. For each study eye, the total area of opacity was determined by outlining the opacity with the freehand selection tool using ImageJ 1.53a analysis software calibrated to mm^2. The “raw internal density” in pixels for the opacified area in each cornea was also determined using ImageJ."}, "collagen type IV": {"test_system": "collagen type IV", "assay": "IHC collagen type IV intensity in anterior and posterior stroma after alkali burn", "details": "one month", "description": "Multiplex immunohistochemistry (IHC) was performed using previously described methods^8 and primary antibodies (Table 7) confirmed by western blotting and IHC to recognize rabbit antigens or isotypic control antibodies (Thermo Fisher Scientific, Waltham, MA), and secondary fluorescent tagged antibodies (Table 7). The collagen type IV antibody (Cat. #AB769, Millipore, Temecula CA) was raised against purified human and bovine collagen type IV that had been affinity purified with human and bovine collagen type IV crosslinked to agarose and cross-absorbed by the manufacturer with human and bovine collagens type I, II, III, V and VI to eliminate cross-reactivity. This collagen type IV antibody was shown previously to bind rabbit collagen IV in IHC,^8,9 and recognizes the alpha-1/alpha-2 chains but not the alpha-3 to alpha-6 chains. The keratocan antibody is raised against peptide […]-OH (SEQ ID NO:1). This marker was used to identify keratocytes in situ. […] All corneas in each group had IHC for collagen type IV. Images from each cornea were converted to uniform 300 DPI, 875×568 pixel, files. […] The staining intensity within each box was determined with the analyze histogram function and the mean of three boxes was the intensity value in the anterior or posterior stroma for that cornea."}, "[2]": {"test_system": "rabbit corneas after Descemetorhexis", "assay": "Slit lamp opacity, scarring fibrosis and neovascularization one month after Descemetorhexis or sham surgery", "details": "for intensity of opacity in a 2.5 mm circle of central cornea (ImageJ) vs vehicles or oral losartan alone: P<0.05", "description": "as §1, with “All procedures involving animals” for “All animal treatments and care”, “All animals” for “All rabbits”, “Research. Twenty-eight” for “Research. Sixteen”, “this study—four in each group.” for “this example.”\nThe rabbits had general anaesthesia with 30 mg/kg ketamine hydrochloride and 5 mg/kg xylazine by IM injection. In addition, topical proparacaine hydrochloride 1% (Alcon, Ft Worth, TX, USA) was applied to each eye prior to the surgery. One cornea selected at random in each group either had sham surgery without Descemetorhexis or an 8 mm diameter central Descemet's membrane-endothelial excision. The time point of one month after surgery was selected for the study because myofibroblasts and fibrosis in the posterior cornea was maximal at this time point in a prior time course Descemetorhexis study (Sampaio et al., 2021). Descemetorhexis was performed as described in the prior study (Sampaio et al., 2021). Briefly, a wire lid speculum was placed into one eye of each rabbit and an 8 mm diameter gentian violet circle was marked on the epithelial surface for reference. A limbal entry incision was created with a 1.6 mm blade (Bausch and Lomb, Rochester, NY, USA) and 0.3 ml Healon OVD (Abbott Medical Optics Inc. Santa Ana, CA, USA) was injected into the anterior chamber. A reversed Sinskey hook (Katena, Denville, New Jersey, USA) was placed into the anterior chamber and an 8 mm diameter disc of Descemet's membrane and endothelium was excised underlying the 8 mm area previously marked on the anterior corneal surface, without a subsequent endothelial corneal transplant. No removal of Descemet's membrane or endothelium was performed in unwounded sham surgery eyes. Remaining Healon OVD was removed with a Simcoe irrigation and aspiration cannula (Bausch & Lomb, Storz, Rochester, NY, USA) and the anterior chamber was filled with balanced salt solution (BSS). A single 10-0 nylon suture was placed at the incision site to prevent leakage from the anterior chamber. One drop of ciprofloxacin (Alcon, Ft. Worth, TX, USA) was applied to the corneas immediately after surgery and four times a day until the epithelium entry wound healed at approximately 2 days.\nThe oral solution was prepared with 5 ml distilled water+50 ml ora-plus (suspending vehicle—Perrigo, Dublin, Ireland)+45 ml Ora-sweet (flavored syrup vehicle—Perrigo).\nAfter one month of treatment, study eyes were dilated with two drops of 1% tropicamide (Akom Co., Lake Forest, IL) for thirty minutes. After general anaesthesia, the study eye in each rabbit had standardized slit lamp photographs at 20× magnification with a Haag Streit (Mason, OH, USA) BX900 slit lamp photography system using identical lighting position and intensity. For each study eye, the intensity of a 2.5 mm diameter central circle (not including the light reflex, examples shown in FIG. 1) was determined using ImageJ 1.53a analysis software. Statistical comparisons of the intensity of opacity was performed using the Kruskal-Wallis test followed by post-hoc Dunn's-Bonferroni test and p<0.05 was considered statistically significant"}, "[3]": {"details": "Descemetorhexis, topical losartan"}}, "data": [{"smiles": "CCCCc1nc(Cl)c(CO)n1Cc1ccc(-c2ccccc2-c2nn[nH]n2)cc1", "note": "[losartan]", "values": [{"measurement": "total corneal opacity area measured with ImageJ, vs BSS vehicle", "setting": "[1]", "result": "decreased"}, {"measurement": "total opacity in pixels in the opacified area of cornea, vs vehicle BSS group", "setting": "[1]", "result": "significantly lower"}, {"measurement": "COL IV staining intensity in the posterior stroma vs vehicle", "setting": "collagen type IV", "result": "significantly different"}, {"measurement": "mean intensity units of collagen type IV in the anterior stroma vs vehicle", "setting": "collagen type IV", "result": "significantly decreased"}, {"measurement": "scarring fibrosis and neovascularization compared to vehicle control corneas", "setting": "[2]; Descemetorhexis, oral 5 mg/kg three times a day", "result": "no difference"}, {"measurement": "scarring fibrosis (slit lamp)", "setting": "[2]; Descemetorhexis, topical 0.1 mg/ml six times per day", "result": "overall decrease"}, {"measurement": "changes in corneal opacity and neovascularization compared with topical losartan alone", "setting": "[2]; Descemetorhexis, topical 0.1 mg/ml six times per day and oral 5 mg/kg three times a day", "result": "not different"}, {"measurement": "intensity of opacity in a 2.5 mm circle of central cornea (ImageJ) vs vehicles or oral losartan alone", "setting": "[2]; Descemetorhexis, topical and oral losartan", "result": "significant decrease"}, {"measurement": "corneal neovascularization that developed after Descemetorhexis", "setting": "[2]; [3]", "result": "reduced"}, {"measurement": "intensity of opacity in a 2.5 mm circle of central cornea (ImageJ) vs vehicles or oral losartan alone", "setting": "[2]; [3]", "result": "significant decrease"}, {"measurement": "effect on the transparency of sham unwounded corneas", "setting": "[2]; oral 5 mg/kg three times per day", "result": "no effect"}, {"measurement": "effect on the transparency of sham unwounded corneas", "setting": "[2]; topical 0.1 mg/ml six times per day", "result": "no effect"}]}]}
